One experiment concerns the target T1, FGFR-3 (Homo sapiens, UniProt P22607).
T1 construct: human FGFR-3 from amino acids R397 to T806 as in NCBI/Protein entry NP_000133.1; purchased Proqinase 1068-0000-1; host or cells: SF9 insect cells (baculovirus)
Kind of experiment: FGFR-3 kinase assay (TR-FRET). Type of experiment: biochemical. The settings on record: 10 μM ATP, 15 min pre-incubation; compounds of the invention (Table 2A). (In general: TR-FRET usually uses a lanthanide donor and a delayed reading to cut background.)

In the next experiment the target is T2, mTOR (Homo sapiens, UniProt P42345).
T2 construct: human mTOR amino acids from 1360 to 2549; purchased Invitrogen 4753; host or cells: insect cells
T2 sequence (P42345 1360-2549): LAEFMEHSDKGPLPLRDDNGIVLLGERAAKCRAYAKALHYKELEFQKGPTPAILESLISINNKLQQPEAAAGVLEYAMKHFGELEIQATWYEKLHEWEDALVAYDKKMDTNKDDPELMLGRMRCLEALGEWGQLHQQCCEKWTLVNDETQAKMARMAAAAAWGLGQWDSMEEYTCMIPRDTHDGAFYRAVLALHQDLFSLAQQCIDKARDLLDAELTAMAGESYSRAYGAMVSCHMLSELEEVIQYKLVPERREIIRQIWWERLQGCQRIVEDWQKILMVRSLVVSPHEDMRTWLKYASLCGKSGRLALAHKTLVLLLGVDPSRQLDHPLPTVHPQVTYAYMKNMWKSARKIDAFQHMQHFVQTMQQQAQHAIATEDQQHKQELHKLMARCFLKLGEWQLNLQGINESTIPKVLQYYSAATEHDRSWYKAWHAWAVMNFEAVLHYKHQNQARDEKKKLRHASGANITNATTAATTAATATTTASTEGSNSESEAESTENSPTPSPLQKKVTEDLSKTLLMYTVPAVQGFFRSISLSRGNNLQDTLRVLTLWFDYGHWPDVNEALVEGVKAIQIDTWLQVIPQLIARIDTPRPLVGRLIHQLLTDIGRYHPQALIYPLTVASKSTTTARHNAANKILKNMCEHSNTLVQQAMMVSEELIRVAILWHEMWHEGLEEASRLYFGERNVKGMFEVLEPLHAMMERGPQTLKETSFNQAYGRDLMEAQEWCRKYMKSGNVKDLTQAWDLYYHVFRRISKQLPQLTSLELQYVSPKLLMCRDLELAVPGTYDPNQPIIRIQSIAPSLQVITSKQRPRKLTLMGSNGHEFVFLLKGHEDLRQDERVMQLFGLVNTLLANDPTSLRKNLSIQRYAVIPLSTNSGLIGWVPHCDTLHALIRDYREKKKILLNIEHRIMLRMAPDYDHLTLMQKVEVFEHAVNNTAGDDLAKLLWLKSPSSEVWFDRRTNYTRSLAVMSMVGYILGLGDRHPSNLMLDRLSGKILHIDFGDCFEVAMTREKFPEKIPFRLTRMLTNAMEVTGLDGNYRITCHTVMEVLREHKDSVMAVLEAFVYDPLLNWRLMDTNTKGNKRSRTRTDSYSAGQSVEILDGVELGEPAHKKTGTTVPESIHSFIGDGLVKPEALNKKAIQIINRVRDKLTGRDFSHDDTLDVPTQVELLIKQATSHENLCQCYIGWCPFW
Briefly: mTOR kinase assay (TR-FRET, for comparative purposes). Type of experiment: biochemical. The settings on record: for inhibition at 1 µM: read-out: mTOR % inhibition @ 1 μM, mean inhibition at 1 μM test compound, 40 μM ATP.

For another experiment, the target named is T3, FGFR-1 (Homo sapiens, UniProt P11362).
T3 construct: human FGFR-1 from amino acids G400 to R800 as in GenBank entry NM_015850; purchased Proqinase 0101-0000-1; host or cells: SF9 insect cells (baculovirus)
T3 sequence (P11362 402-822): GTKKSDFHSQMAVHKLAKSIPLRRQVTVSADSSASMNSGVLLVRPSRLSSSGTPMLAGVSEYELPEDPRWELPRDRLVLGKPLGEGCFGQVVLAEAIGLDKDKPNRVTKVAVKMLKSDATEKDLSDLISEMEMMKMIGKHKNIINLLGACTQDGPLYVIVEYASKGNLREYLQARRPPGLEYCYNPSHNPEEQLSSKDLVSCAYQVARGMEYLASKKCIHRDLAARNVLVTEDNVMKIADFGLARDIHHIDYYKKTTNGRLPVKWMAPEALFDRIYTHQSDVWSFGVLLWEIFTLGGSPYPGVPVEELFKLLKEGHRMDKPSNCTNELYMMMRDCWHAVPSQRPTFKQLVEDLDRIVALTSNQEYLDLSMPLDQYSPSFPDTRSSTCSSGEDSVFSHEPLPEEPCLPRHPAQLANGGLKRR
Briefly: FGFR-1 high ATP kinase assay (TR-FRET). Type of experiment: biochemical. The settings on record: 2 mM ATP, 15 min pre-incubation; compounds of the invention (Table 1A).

The test system of experiment [1] is Human umbilical vein endothelial cells (HUVEC). Briefly: Inhibition of hFGF-2 mediated HUVEC proliferation. It is filed as cell-based. The settings on record: 72 h.

Structures can show the parent of a compound that is named as a salt.

The values that follow come from patent US20220153745A1, “DISUBSTITUTED BENZOTHIENYL-PYRROLOTRIAZINES AND THEIR USE AS FGFR KINASE INHIBITORS” (Bayer Intellectual Property GmbH, priority 2011, published 2022).

T1 sequence (P22607 397-806): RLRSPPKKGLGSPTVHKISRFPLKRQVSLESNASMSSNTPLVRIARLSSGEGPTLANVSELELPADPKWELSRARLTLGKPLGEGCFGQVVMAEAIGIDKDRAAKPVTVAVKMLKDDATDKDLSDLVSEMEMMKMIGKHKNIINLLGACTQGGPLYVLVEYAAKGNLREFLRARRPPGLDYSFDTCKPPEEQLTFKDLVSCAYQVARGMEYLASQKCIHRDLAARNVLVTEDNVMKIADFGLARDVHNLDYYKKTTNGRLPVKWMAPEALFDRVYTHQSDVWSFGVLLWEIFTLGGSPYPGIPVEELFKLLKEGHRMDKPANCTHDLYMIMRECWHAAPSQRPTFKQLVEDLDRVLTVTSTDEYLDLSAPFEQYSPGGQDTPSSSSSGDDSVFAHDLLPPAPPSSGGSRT

On to `COc1cc(C)cc2cc(-c3c(-c4cnco4)c(CN4CCNCC4)n4ncnc(N)c34)sc12` [Example 61, 5-(7-Methoxy-5-methyl-1-benzothiophen-2-yl)-6-(1,3-oxazol-5-yl)-7-(piperazin-1-ylmethyl)pyrrolo[2,1-f][1,2,4]triazin-4-amine trihydrochloride], for which half-maximal inhibition on FGFR-3 (IC50) required 0.9 nM. Further, the inhibition (in general, the change of the read-out against control, counted positive when it falls) at 1 µM on mTOR came out at 15.9%.

Regarding `COc1cc(C)cc2cc(-c3c(CN)c(CN4CCNCC4)n4ncnc(N)c34)sc12` [Example 62, 6-(Aminomethyl)-5-(7-methoxy-5-methyl-1-benzothiophen-2-yl)-7-(piperazin-1-ylmethyl)pyrrolo[2,1-f][1,2,4]triazin-4-amine trihydrochloride], the results for the IC50 against FGFR-3 and against FGFR-1 were 11 nM and 3.1 nM, respectively. In addition, at mTOR, the inhibition at 1 µM was found to be 0.2%.

For the compound `CCNCc1c(-c2cc3cc(C)cc(OC)c3s2)c2c(N)ncnn2c1CN1CCNCC1` [Example 38, 6-[(Ethylamino)methyl]-5-(7-methoxy-5-methyl-1-benzothiophen-2-yl)-7-(piperazin-1-ylmethyl)pyrrolo[2,1-f][1,2,4]triazin-4-amine trihydrochloride], the inhibition at 1 µM on mTOR was found to be 20.8%. For the same compound, on FGFR-1, the IC50 (usually the concentration that inhibits the measured activity by half) is 6.9 nM.

As to `COc1cc(C)cc2cc(-c3c(CNC4CC4)c(CN4CCNCC4)n4ncnc(N)c34)sc12` [Example 46, 6-[(Cyclopropylamino)methyl]-5-(7-methoxy-5-methyl-1-benzothiophen-2-yl)-7-(piperazin-1-ylmethyl)pyrrolo[2,1-f][1,2,4]triazin-4-amine trihydrochloride], the IC50 is 8.1 nM on FGFR-3 and 3.2 nM against FGFR-1. Further, at mTOR, the inhibition at 1 µM stood at 11%.

`COc1cc(C)cc2cc(-c3c(COCCO)c(CN4CCNCC4)n4ncnc(N)c34)sc12` [Example 22, 2-{[4-Amino-5-(7-methoxy-5-methyl-1-benzothiophen-2-yl)-7-(piperazin-1-ylmethyl)pyrrolo[2,1-f]-[1,2,4]triazin-6-yl]methoxy}ethanol dihydrochloride]: the IC50 against FGFR-3 was 4.7 nM; at FGFR-1 it was 0.9 nM. On mTOR, the inhibition at 1 µM was 17.6%.

`COc1cc(C)cc2cc(-c3c(CNCC(C)(C)O)c(CN4CCOCC4)n4ncnc(N)c34)sc12` [Example 54, 1-({[4-Amino-5-(7-methoxy-5-methyl-1-benzothiophen-2-yl)-7-(morpholin-4-ylmethyl)pyrrolo[2,1-f][1,2,4]triazin-6-yl]methyl}amino)-2-methylpropan-2-ol]: the inhibition at 1 µM at mTOR was found to be 1.7%. Moreover, the IC50 in experiment [1] turned out to be 2.2 nM.

With `COc1cc(C)cc2cc(-c3c(CNCCO)c(CN4CCNCC4)n4ncnc(N)c34)sc12` [Example 39, 2-({[4-Amino-5-(7-methoxy-5-methyl-1-benzothiophen-2-yl)-7-(piperazin-1-ylmethyl)pyrrolo[2,1-f]-[1,2,4]triazin-6-yl]methyl}amino)ethanol trihydrochloride], the 50% inhibitory concentration (IC50) on FGFR-3 is 4.9 nM; against FGFR-1 it was 1.1 nM. Moreover, the inhibition at 1 µM at mTOR is 11.5%.

Consider `COc1cc(C)cc2cc(-c3c(CNCC4CC4)c(CN4CCNCC4)n4ncnc(N)c34)sc12` [Example 47, 6-{[(Cyclopropylmethyl)amino]methyl}-5-(7-methoxy-5-methyl-1-benzothiophen-2-yl)-7-(piperazin-1-ylmethyl)pyrrolo[2,1-f][1,2,4]triazin-4-amine trihydrochloride], for which the IC50 against FGFR-3 turned out to be 3.4 nM; against FGFR-1, 1.7 nM. The inhibition at 1 µM at mTOR amounted to 14.7%.

For `COC(=O)c1c(-c2cc3cc(C)cc(OC)c3s2)c2c(N)ncnn2c1C(=O)N1CCNCC1` [Example 60, Methyl 4-amino-5-(7-methoxy-5-methyl-1-benzothiophen-2-yl)-7-(piperazin-1-ylcarbonyl)pyrrolo[2,1-f][1,2,4]triazine-6-carboxylate bis(formiate)], the inhibition at 1 µM at mTOR was 11.1%. Also, the concentration for half-maximal inhibition (IC50) in experiment [1] is 250 nM.

Regarding `COc1cc(C)cc2cc(-c3c(CN4CCNC(=O)C4)c(CN4CCN(C(C)=O)CC4)n4ncnc(N)c34)sc12` [Example 59, 4-({7-[(4-Acetylpiperazin-1-yl)methyl]-4-amino-5-(7-methoxy-5-methyl-1-benzothiophen-2-yl)pyrrolo[2,1-f][1,2,4]triazin-6-yl}methyl)piperazin-2-one], on mTOR, the inhibition at 1 µM is 0.8%. The same compound displayed an IC50 in experiment [1] of 51.1 nM.

Consider `COc1cc(C)cc2cc(-c3c(CN4CCNC(=O)C4)c(C)n4ncnc(N)c34)sc12` [Example 76, 4-{[4-Amino-5-(7-methoxy-5-methyl-1-benzothiophen-2-yl)-7-methylpyrrolo[2,1-f][1,2,4]triazin-6-yl]methyl}piperazin-2-one], for which the inhibition at 1 µM on mTOR amounted to 8.5%. Further, the IC50 in experiment [1] was determined as 1.5 nM.

Regarding `COc1cc(C)cc2cc(-c3c(CNC(C)=O)c(CN4CCNCC4)n4ncnc(N)c34)sc12` [Example 64, N-{[4-Amino-5-(7-methoxy-5-methyl-1-benzothiophen-2-yl)-7-(piperazin-1-ylmethyl)pyrrolo[2,1-f][1,2,4]triazin-6-yl]methyl}acetamide dihydrochloride], the IC50 was determined as 2.9 nM against FGFR-3 and 1 nM against FGFR-1. Besides, on mTOR, the inhibition at 1 µM was found to be 1.1%.

Turning to `COc1cc(C)cc2cc(-c3c(CN4CCCC4)c(CN4CCNCC4)n4ncnc(N)c34)sc12` [Example 45, 5-(7-Methoxy-5-methyl-1-benzothiophen-2-yl)-7-(piperazin-1-ylmethyl)-6-(pyrrolidin-1-ylmethyl)pyrrolo[2,1-f][1,2,4]triazin-4-amine trihydrochloride], the IC50 was determined as 9.7 nM on FGFR-3 and 3.4 nM on FGFR-1. Further, the inhibition at 1 µM at mTOR worked out at 15.5%.

For the compound `COc1cc(C)cc2cc(-c3c(COC4CCC4)c(CN4CCNCC4)n4ncnc(N)c34)sc12` [Example 26, 6-[(Cyclobutyloxy)methyl]-5-(7-methoxy-5-methyl-1-benzothiophen-2-yl)-7-(piperazin-1-ylmethyl)pyrrolo[2,1-f][1,2,4]triazin-4-amine], the inhibition at 1 µM on mTOR came out at 6.8%. The compound further displayed an IC50 in experiment [1] of 56.7 nM.

As for `COc1cc(C)cc2cc(-c3c(CNCC(C)(C)O)c(C)n4ncnc(N)c34)sc12` [Example 77, 1-({[4-Amino-5-(7-methoxy-5-methyl-1-benzothiophen-2-yl)-7-methylpyrrolo[2,1-f][1,2,4]triazin-6-yl]methyl}amino)-2-methylpropan-2-ol formiate], the “mTOR % inhibition @ 1 μM” value on mTOR (mean inhibition at 1 μM test compound, 40 μM ATP) came to 0.7%. In experiment [1], this compound returned an IC50 of 3.2 nM.

`COCc1c(-c2cc3cc(C)cc(OC)c3s2)c2c(N)ncnn2c1CN1CC[C@](C)(N)C1` [Example 14, 7-{[(3S)-3-Amino-3-methylpyrrolidin-1-yl]methyl}-6-(methoxymethyl)-5-(7-methoxy-5-methyl-1-benzothiophen-2-yl)pyrrolo[2,1-f][1,2,4]triazin-4-amine trihydrochloride] came in with an IC50 on FGFR-3 of 2.5 nM. The inhibition at 1 µM on mTOR stood at 15.7%.

As for `COc1cc(C)cc2cc(-c3c(CN[C@H]4CCNC4=O)c(CN4CCOCC4)n4ncnc(N)c34)sc12` [Example 51, (3S)-3-({[4-Amino-5-(7-methoxy-5-methyl-1-benzothiophen-2-yl)-7-(morpholin-4-ylmethyl)pyrrolo[2,1-f][1,2,4]triazin-6-yl]methyl}amino)pyrrolidin-2-one], the inhibition at 1 µM at mTOR came out at 8.4%. For the same compound, in experiment [1], the IC50 is 1.2 nM.

Consider `COc1cc(C)cc2cc(-c3c(CNC4CCC4)c(CN4CCNCC4)n4ncnc(N)c34)sc12` [Example 44, 6-[(Cyclobutylamino)methyl]-5-(7-methoxy-5-methyl-1-benzothiophen-2-yl)-7-(piperazin-1-ylmethyl)pyrrolo[2,1-f][1,2,4]triazin-4-amine trihydrochloride], for which the inhibition at 1 µM at mTOR was 13.3%. This compound also registered an IC50 against FGFR-1 of 2.1 nM.

On to `COc1cc(C)cc2cc(-c3c(CNCC(C)O)c(CN4CCOCC4)n4ncnc(N)c34)sc12` (racemic) [Example 53, rac-1-({[4-Amino-5-(7-methoxy-5-methyl-1-benzothiophen-2-yl)-7-(morpholin-4-ylmethyl)pyrrolo[2,1-f][1,2,4]triazin-6-yl]methyl}amino)propan-2-ol], for which the inhibition at 1 µM at mTOR came to 3.3%. In experiment [1], this compound had an IC50 of 3.3 nM.

As to `CCOCc1c(-c2cc3cc(C)cc(OC)c3s2)c2c(N)ncnn2c1CN1CCN(C(C)=O)CC1` [Example 11, 1-(4-{[4-Amino-6-(ethoxymethyl)-5-(7-methoxy-5-methyl-1-benzothiophen-2-yl)pyrrolo[2,1-f][1,2,4]triazin-7-yl]methyl}piperazin-1-yl)ethanone dihydrochloride], the inhibition at 1 µM at mTOR turned out to be 33.2%. In addition, 6.5 nM corresponded to half-maximal inhibition on FGFR-1 (IC50).

Turning to `COc1cc(C)cc2cc(-c3c(CO)c(Cl)n4ncnc(N)c34)sc12` [Example 79, [4-Amino-7-chloro-5-(7-methoxy-5-methyl-1-benzothiophen-2-yl)pyrrolo[2,1-f][1,2,4]triazin-6-yl]-methanol], at mTOR, the inhibition at 1 µM came out at 14.7%. Also, 3.5 nM corresponded to half-maximal inhibition in experiment [1] (IC50).

In the case of `COCc1c(-c2cc3cc(C)cc(OC)c3s2)c2c(N)ncnn2c1CN1CCN(C(C)=O)CC1` [Example 16, 1-(4-{[4-Amino-6-(methoxymethyl)-5-(7-methoxy-5-methyl-1-benzothiophen-2-yl)pyrrolo[2,1-f]-[1,2,4]triazin-7-yl]methyl}piperazin-1-yl)ethanone dihydrochloride], half-maximal inhibition at FGFR-3 (IC50) required 9.4 nM. In addition, the inhibition at 1 µM on mTOR is 36.9%.
